SMILES strings stand for the structures. “And” between values parts separate entries of the source, which are not always exact repeats. Equal values may be shown once. Inconclusive results and toxic doses are left out.

We go through eleven compounds from PubChem BioAssay AID248 (DTP/NCI, 2004).

For this assay, the system named is L1210 leukemia ip in BDF1 mice, survival T/C. Description: NCI In Vivo Anticancer Drug Screen. Data for tumor model L1210 Leukemia (intraperitoneal) in B6D2F1 (BDF1) mice. Conditions: endpoint: mean survival time, higher = longer survival. The procedure, abridged:
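Tumor cells were implanted, animals were treated, and survival was followed. The result divides the treated measurement by the vehicle-control measurement.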

Where [1] appears, read: dose: 100.0 mg/kg/injection, schedule: Q01DX001 (ip), vehicle: carboxymethylcellulose (CMC).
[2] abbreviates: dose: 200.0 mg/kg/injection, schedule: Q01DX001 (ip), vehicle: carboxymethylcellulose (CMC).
[3] abbreviates: dose: 400.0 mg/kg/injection, schedule: Q01DX001 (ip), vehicle: carboxymethylcellulose (CMC).
Setting [4] is: dose: 12.5 mg/kg/injection, schedule: Q04DX003 (ip), vehicle: saline.
Where [5] appears, read: dose: 50.0 mg/kg/injection, schedule: Q04DX003 (ip), vehicle: saline.

As for `Clc1c2ccccc2c(Cl)c2ccccc12`, the T/C by setting is: (dose: 3.1 mg/kg/injection, schedule: Q04DX002 (ip), vehicle: Klucel (hydroxypropylcellulose) (HPC)) 89 % of control; (dose: 6.25 mg/kg/injection, schedule: Q04DX002 (ip), vehicle: Klucel (hydroxypropylcellulose) (HPC)) 100 % of control; (dose: 12.5 mg/kg/injection, schedule: Q04DX002 (ip), vehicle: Klucel (hydroxypropylcellulose) (HPC)) 93 % of control; (dose: 25.0 mg/kg/injection, schedule: Q04DX002 (ip), vehicle: Klucel (hydroxypropylcellulose) (HPC)) 90 % of control.
Turning to `CCCNC(=O)c1ccc(NC(=O)Nc2ccc(C3=NCCN3)cc2)cc1NC(=O)Nc1ccc(C2=NCCN2)cc1`, the T/C by setting is: (dose: 25.0 mg/kg/injection, schedule: Q01DX Z (ip), vehicle: carboxymethylcellulose (CMC)) 113 % of control; (dose: 50.0 mg/kg/injection, schedule: Q01DX Z (ip), vehicle: carboxymethylcellulose (CMC)) 117 % of control; (dose: 100.0 mg/kg/injection, schedule: Q01DX Z (ip), vehicle: carboxymethylcellulose (CMC)) 108 % of control and 113 % of control.
For the compound `CCOc1ccc(Nc2c3ccccc3nc3ccccc23)cc1`, the T/C is, setting by setting: (dose: 12.5 mg/kg/injection, schedule: Q01DX009 (ip), vehicle: saline with Tween-80) 102 % of control; (dose: 20.0 mg/kg/injection, schedule: Q01DX009 (ip), vehicle: saline with Tween-80) 108 % of control; (dose: 25.0 mg/kg/injection, schedule: Q01DX009 (ip), vehicle: saline with Tween-80) 123 % of control; (dose: 30.0 mg/kg/injection, schedule: Q01DX009 (ip), vehicle: saline with Tween-80) 110 % of control; (dose: 44.0 mg/kg/injection, schedule: Q01DX009 (ip), vehicle: saline with Tween-80) 105 % of control; (dose: 50.0 mg/kg/injection, schedule: Q01DX009 (ip), vehicle: saline with Tween-80) 123 % of control. Besides, the T/C was 111 % of control and 123 % of control (dose: 66.0 mg/kg/injection, schedule: Q01DX009 (ip), vehicle: saline with Tween-80); 94 % of control (dose: 100.0 mg/kg/injection, schedule: Q01DX009 (ip), vehicle: saline with Tween-80).
On to `C=CC(C)(C)c1c2c(c(O)c3c(=O)c4ccc(O)c(O)c4oc13)C=CC(C)(C)O2`, for which the T/C runs as follows: under setting [1], 95 % of control; under setting [2], 92 % of control; under setting [3], 95 % of control.
On to `CC(C)(C)c1nc2ccc([N+](=O)[O-])cc2[nH]1`, for which the T/C reads like this: (dose: 38.0 mg/kg/injection, schedule: Q01DX009 (ip), vehicle: other) 104 % of control; (dose: 75.0 mg/kg/injection, schedule: Q01DX001 (ip), vehicle: other) 92 % of control; (dose: 75.0 mg/kg/injection, schedule: Q04DX003 (ip), vehicle: other) 92 % of control; (dose: 150.0 mg/kg/injection, schedule: Q01DX001 (ip), vehicle: other) 91 % of control; (dose: 150.0 mg/kg/injection, schedule: Q04DX003 (ip), vehicle: other) 92 % of control; (dose: 300.0 mg/kg/injection, schedule: Q01DX001 (ip), vehicle: other) 97 % of control.
In the case of `CCCCCCCCCCCCOC(=O)c1cc(O)c(O)c(O)c1`, for the setting “dose: 75.0 mg/kg/injection, schedule: Q01DX001 (ip), vehicle: acetone”, the T/C is 103 % of control.
For `c1ccc([P+](Cc2ccc3c(c2)OCO3)(c2ccccc2)c2ccccc2)cc1`, the T/C was 98 % of control (dose: 12.5 mg/kg/injection, schedule: Q01DX001 (ip), vehicle: saline); 101 % of control (dose: 12.5 mg/kg/injection, schedule: Q01DX009 (ip), vehicle: saline); 95 % of control under setting [4]; 95 % of control (dose: 25.0 mg/kg/injection, schedule: Q01DX001 (ip), vehicle: saline); 106 % of control (dose: 25.0 mg/kg/injection, schedule: Q04DX003 (ip), vehicle: saline); 96 % of control (dose: 50.0 mg/kg/injection, schedule: Q01DX001 (ip), vehicle: saline). Under setting [5], the T/C is 88 % of control.
As for `CCOC(=O)CC(C(C)=O)C(=O)OCC` (centres undefined), the T/C (dose: 50.0 mg/kg/injection, schedule: Q01DX001 (ip), vehicle: carboxymethylcellulose (CMC)) was 100 % of control; the T/C under setting [1] is 100 % of control; the T/C under setting [2] is 94 % of control; the T/C under setting [3] is 100 % of control.
With `CC1(C)N=C(N)N=C(N)N1c1ccc(CCCCc2ccc(S(=O)(=O)F)cc2Cl)c(Cl)c1`, the T/C was 102 % of control (dose: 3.12 mg/kg/injection, schedule: Q01DX009 (ip), vehicle: Klucel (hydroxypropylcellulose) (HPC)); 97 % of control (dose: 3.12 mg/kg/injection, schedule: Q04DX003 (ip), vehicle: Klucel (hydroxypropylcellulose) (HPC)); 100 % of control (dose: 6.25 mg/kg/injection, schedule: Q01DX009 (ip), vehicle: Klucel (hydroxypropylcellulose) (HPC)); 116 % of control (dose: 6.25 mg/kg/injection, schedule: Q01DX009 (ip), vehicle: saline); 105 % of control (dose: 6.25 mg/kg/injection, schedule: Q04DX003 (ip), vehicle: Klucel (hydroxypropylcellulose) (HPC)); 111 % of control (dose: 7.26 mg/kg/injection, schedule: Q01DX009 (ip), vehicle: saline). Also, the T/C was 115 % of control (dose: 7.26 mg/kg/injection, schedule: Q04DX003 (ip), vehicle: saline); 117 % of control (dose: 10.89 mg/kg/injection, schedule: Q01DX009 (ip), vehicle: saline); 105 % of control (dose: 12.5 mg/kg/injection, schedule: Q01DX009 (ip), vehicle: Klucel (hydroxypropylcellulose) (HPC)); 105 % of control (dose: 12.5 mg/kg/injection, schedule: Q04DX003 (ip), vehicle: Klucel (hydroxypropylcellulose) (HPC)); 122 % of control (dose: 24.0 mg/kg/injection, schedule: Q01DX009 (ip), vehicle: saline with Tween-80); 107 % of control and 122 % of control (dose: 25.0 mg/kg/injection, schedule: Q01DX009 (ip), vehicle: Klucel (hydroxypropylcellulose) (HPC)). Also, the T/C is 115 % of control (dose: 25.0 mg/kg/injection, schedule: Q04DX003 (ip), vehicle: Klucel (hydroxypropylcellulose) (HPC)); 112 % of control (dose: 50.0 mg/kg/injection, schedule: Q04DX003 (ip), vehicle: Klucel (hydroxypropylcellulose) (HPC)); 98 % of control (dose: 75.0 mg/kg/injection, schedule: Q01DX009 (ip), vehicle: saline with Tween-80); 116 % of control (dose: 75.0 mg/kg/injection, schedule: Q01DX009 (ip), vehicle: saline); 88 % of control (dose: 100.0 mg/kg/injection, schedule: Q01DX009 (ip), vehicle: saline); 118 % of control (dose: 100.0 mg/kg/injection, schedule: Q04DX003 (ip), vehicle: Klucel (hydroxypropylcellulose) (HPC)). Besides, the T/C is, setting by setting: (dose: 150.0 mg/kg/injection, schedule: Q01DX009 (ip), vehicle: saline) 96 % of control; (dose: 150.0 mg/kg/injection, schedule: Q04DX003 (ip), vehicle: saline with Tween-80) 117 % of control; (dose: 200.0 mg/kg/injection, schedule: Q01DX009 (ip), vehicle: Klucel (hydroxypropylcellulose) (HPC)) 109 % of control; (dose: 200.0 mg/kg/injection, schedule: Q04DX003 (ip), vehicle: saline) 120 % of control; (dose: 300.0 mg/kg/injection, schedule: Q01DX009 (ip), vehicle: saline) 98 % of control; (dose: 300.0 mg/kg/injection, schedule: Q04DX003 (ip), vehicle: Klucel (hydroxypropylcellulose) (HPC)) 152 % of control. For the same compound, the T/C reads like this: (dose: 300.0 mg/kg/injection, schedule: Q04DX003 (ip), vehicle: saline) 152 % of control; (dose: 400.0 mg/kg/injection, schedule: Q04DX003 (ip), vehicle: Klucel (hydroxypropylcellulose) (HPC)) 113 % of control; (dose: 450.0 mg/kg/injection, schedule: Q04DX003 (ip), vehicle: saline) 111 % of control.
Consider `CNC(C#N)c1ccco1` (centres undefined), for which the T/C was 102 % of control (dose: 6.25 mg/kg/injection, schedule: Q04DX003 (ip), vehicle: saline); 95 % of control under setting [4]; 94 % of control under setting [5].
For the compound `CCC(=O)OC1(c2ccccc2)CCN(CCNc2ccccc2)CC1`, the T/C runs as follows: (dose: 20.0 mg/kg/injection, schedule: Q04DX003 (ip), vehicle: Klucel (hydroxypropylcellulose) (HPC)) 100 % of control; (dose: 40.0 mg/kg/injection, schedule: Q04DX003 (ip), vehicle: Klucel (hydroxypropylcellulose) (HPC)) 103 % of control; (dose: 80.0 mg/kg/injection, schedule: Q04DX003 (ip), vehicle: Klucel (hydroxypropylcellulose) (HPC)) 105 % of control.
